Data taken from PMC2225441, “Partial Restoration of Mutant Enzyme Homeostasis in Three Distinct Lysosomal Storage Disease Cell Lines by Altering Calcium Homeostasis” (PLoS Biology, 2008).

Tested on: L444P GC
Assay: intact cell GC activity assay in homozygous L444P GC patient-derived fibroblasts
Assay type: cell-based, human
Settings: for L444P GC activity, screen of VGCC blockers, ionotropic glutamate receptor inhibitors and other calcium channel blockers: intact cell GC activity assay, only the named compounds increased activity; for L444P GC activity, screen of fifteen thermosensitive TRP channel modulators: intact cell GC enzyme assay, 5-d incubation, Figure S1, only the named compound increased activity

Row | Compound | L444P GC activity, screen of VGCC blockers, ionotropic glutamate receptor inhibitors and other calcium channel blockers | L444P GC activity, screen of fifteen thermosensitive TRP channel modulators | other results
1 | O=[N+]([O-])c1cc2nc(O)c(O)nc2cc1[N+](=O)[O-] [DNQX] | only diltiazem and verapamil |  | 
2 | CCCCC/C=C\C/C=C\C/C=C\C/C=C\CCCC(=O)NCCO [anandamide] |  | Only ruthenium red notably increased | 
3 | COc1ccc([C@@H]2Sc3ccccc3N(CCN(C)C)C(=O)[C@@H]2O)cc1 [Compound 2] |  |  | maximum increase of L444P lysosomal GC activity (10 μM, 7 d, intact cell assay, Figure 3D): 2.1 fold
4 | CN(C)C(=O)C(CCN1CCC(O)(c2ccc(Cl)cc2)CC1)(c1ccccc1)c1ccccc1 [loperamide] | only diltiazem and verapamil |  | 
5 | CC12CCC(CC1=O)C2(C)C (stereo not drawn) [camphor] |  | Only ruthenium red notably increased | 
6 | CCC1(C)CC(=O)NC1=O (stereo not drawn) [ethosuximide] | only diltiazem and verapamil |  | 
7 | CCCCc1oc2ccccc2c1C(=O)c1cc(I)c(OCCN(CC)CC)c(I)c1 [amiodarone] | only diltiazem and verapamil |  | 
8 | Cc1cc(-c2ccc(/N=N/c3ccc4c(S(=O)(=O)O)cc(S(=O)(=O)O)c(N)c4c3O)c(C)c2)ccc1/N=N/c1ccc2c(S(=O)(=O)O)cc(S(=O)(=O)O)c(N)c2c1O [Evans blue] | only diltiazem and verapamil |  | 
9 | COc1ccc(CCCOC(Cn2ccnc2)c2ccc(OC)cc2)cc1 (stereo not drawn) [SKF 96365] | only diltiazem and verapamil |  | 
10 | Fc1ccc(C(c2ccc(F)cc2)N2CCN(C/C=C/c3ccccc3)CC2)cc1 [flunarizine] | only diltiazem and verapamil |  | 
11 | COCCOC(=O)C1=C(C)NC(C)=C(C(=O)OC(C)C)C1c1cccc([N+](=O)[O-])c1 (stereo not drawn) [nimodipine] | only diltiazem and verapamil |  | 
12 | Oc1cc2c(cc1O)CN(C(=S)NCCc1ccc(Cl)cc1)CCC2 [capsazepine] |  | Only ruthenium red notably increased | 
13 | COc1cc(CNC(=O)CCCC/C=C/C(C)C)ccc1O [capsaicin] |  | Only ruthenium red notably increased | 
14 | CC1CCC(C(C)C)C(O)C1 (stereo not drawn) [menthol] |  | Only ruthenium red notably increased | 
15 | O=C(O)c1cc(=O)c2c(Cl)cc(Cl)cc2[nH]1 [5,7-dichlorokynurenic acid] | only diltiazem and verapamil |  | 
16 | CC12CCC(CC1)C(C)(C)O2 [eucalyptol] |  | Only ruthenium red notably increased | 
17 | O=C/C=C/c1ccccc1 [cinnamaldehyde] |  | Only ruthenium red notably increased | 
18 | COCC(=O)O[C@]1(CCN(C)CCCc2nc3ccccc3[nH]2)CCc2cc(F)ccc2[C@@H]1C(C)C [mibefradil] | only diltiazem and verapamil |  | 
19 | N.N.N.N.N.N.N.N.N.N.N.N.N.N.[Cl-].[Cl-].[Cl-].[Cl-].[Cl-].[Cl-].[O-2].[O-2].[Ru+3].[Ru+3].[Ru+4] [ruthenium red] |  | notably increased | 
20 | NC(=O)OCC(COC(N)=O)c1ccccc1 [felbamate] | only diltiazem and verapamil |  | 
21 | C=CCN=C=S [allylisothiocyanate] |  | Only ruthenium red notably increased | 
22 | NCCOB(c1ccccc1)c1ccccc1 [Compound 2-APB, 2-APB] |  | Only ruthenium red notably increased | 
23 | CCOC(=O)C(N)/C=C(\C)CP(=O)(O)O (stereo not drawn) [CGP 39551] | only diltiazem and verapamil |  | 
24 | O=C(/C=C/C=C/c1ccc2c(c1)OCO2)N1CCCCC1 [piperine] |  | Only ruthenium red notably increased | 
